Results published in ChEMBL document CHEMBL4616593, “Formaldehyde-activated WEHI-150 induces DNA interstrand crosslinks with unique structural features” (Bioorg Med Chem, 2020).
Active and inactive are the calls of the source. The rule behind the calls is not given here.

Legend:
Format in all cases: nucleic-acid assay
DNA [1] = assay: Stabilization of [32P]-labelled dsDNA (unknown origin) assessed as drug-DNA adduct formation at 5 uM in presence of formaldehyde incubated for 12 hrs by phosphorimaging analysis relative to control
DNA [2] = assay: Stabilization of dsBE12 oligonucleotide (unknown origin) assessed as drug-DNA adduct formation at 5 to 50 uM incubated for 4 hrs in presence of formaldehyde using [gamma-32P]ATP by phosphorimaging analysis relative to control
DNA [3] = assay: Stabilization of [32P]-labelled dsDNA (unknown origin) assessed as drug-DNA adduct formation by measuring adduct half life incubated for 12 hrs in presence of formaldehyde by phosphorimaging analysis
DNA [4] = assay: Stabilization of dsBE15 oligonucleotide (unknown origin) assessed as drug-DNA adduct formation at 50 uM incubated for 4 hrs in presence of formaldehyde using [gamma-32P]ATP by phosphorimaging analysis relative to control
DNA [5] = assay: Stabilization of [32P]-labelled dsDNA (unknown origin) assessed as drug-DNA adduct formation by measuring residual dsDNA level at 2.5 uM measured after 16 hrs in presence of formaldehyde by phosphorimaging analysis relative to control
DNA [6] = assay: Induction of transcriptional blockage of 512 bp DNA fragment (unknown origin) assessed as loss of full length transcript comprising 379 nucleotide at 10 uM incubated for 4 hrs in presence of formaldehyde using [alpha-32P]UTP by phosphorimaging analysis relative to control
DNA [7] = assay: Stabilization of dsBE67 oligonucleotide (unknown origin) assessed as drug-DNA adduct formation at 5 to 50 uM incubated for 4 hrs in presence of formaldehyde using [gamma-32P]ATP by phosphorimaging analysis relative to control
DNA [8] = assay: Binding affinity to dsBE45 oligonucleotide (unknown origin) assessed as drug-DNA adduct formation at 5 to 50 uM incubated for 4 hrs in presence of formaldehyde using [gamma-32P]ATP by phosphorimaging analysis
DNA [9] = assay: Induction of transcriptional blockage of 512 bp DNA fragment (unknown origin) at 2.5 uM incubated for 4 hrs in presence of formaldehyde using [alpha-32P]UTP by phosphorimaging analysis
DNA [10] = assay: Stabilization of [32P]-labelled dsDNA (unknown origin) assessed as drug-DNA adduct formation by measuring increase in retardation of dsDNA migration on gel at >3 uM incubated for 12 hrs in presence of formaldehyde by phosphorimaging analysis
DNA [11] = assay: Stabilization of [32P]-labelled dsDNA (unknown origin) assessed as drug-DNA adduct formation incubated for 12 hrs in presence of formaldehyde by phosphorimaging analysis
DNA [12] = assay: Stabilization of dsBE17 oligonucleotide (unknown origin) assessed as drug-DNA adduct formation at 5 to 50 uM incubated for 4 hrs in presence of formaldehyde using [gamma-32P]ATP by phosphorimaging analysis
DNA [13] = assay: Induction of transcriptional blockage of 512 bp DNA fragment (unknown origin) assessed as loss of full length transcript comprising 379 nucleotide at 5 uM incubated for 4 hrs in presence of formaldehyde using [alpha-32P]UTP by phosphorimaging analysis
DNA [14] = assay: Stabilization of [32P]-labelled dsDNA (unknown origin) assessed as drug-DNA adduct formation by measuring adduct half life at 10 uM in presence of formaldehyde by phosphorimaging analysis
DNA [15] = assay: Stabilization of [32P]-labelled dsDNA (unknown origin) assessed as drug-DNA adduct formation at 1 uM to 24 uM incubated for 12 hrs in presence of formaldehyde by phosphorimaging analysis
DNA [16] = assay: Stabilization of dsBE15 oligonucleotide (unknown origin) assessed as drug-DNA adduct formation at 5 to 50 uM incubated for 4 hrs in presence of formaldehyde using [gamma-32P]ATP by phosphorimaging analysis
DNA [17] = assay: Stabilization of [32P]-labelled dsDNA (unknown origin) assessed as drug-DNA adduct formation by measuring residual dsDNA level at 6 uM measured after 10 days in presence of formaldehyde by phosphorimaging analysis relative to control
DNA [18] = assay: Stabilization of [32P]-labelled dsDNA (unknown origin) assessed as drug-DNA adduct formation by measuring residual dsDNA level at 6 uM measured after 16 hrs in presence of formaldehyde by phosphorimaging analysis relative to control
DNA [19] = assay: Induction of transcriptional blockage of 512 bp DNA fragment (unknown origin) at 2.5 to 10 uM incubated for 4 hrs in presence of formaldehyde using [alpha-32P]UTP by phosphorimaging analysis

Row | SMILES | Activity (DNA [1]) | Activity (DNA [2]) | T1/2 (DNA [3]) | Activity (DNA [4]) | Activity (DNA [5]) | Activity (DNA [6]) | Activity (DNA [7]) | Activity (DNA [8]) | Activity (DNA [9]) | Activity (DNA [10]) | Activity (DNA [11]) | Activity (DNA [12]) | Activity (DNA [13]) | T1/2 (DNA [14]) | Activity (DNA [15]) | Activity (DNA [16]) | Activity (DNA [17]) | Activity (DNA [18]) | Activity (DNA [19])
1 | O=C1c2c(O)ccc(O)c2C(=O)c2c(NCCNCCO)ccc(NCCNCCO)c21 | 5% | Active | 0.42 h |  |  |  |  |  |  |  |  |  |  |  |  |  |  |  | 
2 | NCCNCCNc1ccc(NCCNCCN)c2c1C(=O)c1c(O)ccc(O)c1C2=O | 90 to 100% | < 80% | 12.5 h | > 75% | 20% | 100% | Active | Active | Active | Active | Dose-dependent effect | Active | Active |  |  |  |  |  | 
3 | NCCCCCNc1ccc(F)c2c1C(=O)c1c(O)ccc(O)c1C2=O | 50% | inactive | 24 h |  |  |  | 10% | inactive |  |  |  | Active |  | 27 h | Active | inactive |  |  | 
4 | NCCCCCNc1ccc(NCCCCCN)c2c1C(=O)c1ccncc1C2=O | < 2% |  |  |  |  |  |  |  |  |  |  |  |  |  | inactive |  |  |  | 
5 | NCCCCCNc1ccc(NCCCCCN)c2c1C(=O)c1c(O)ccc(O)c1C2=O | 40% | 20% | 53 h |  |  |  | 30% | inactive |  |  |  | Active |  |  | Active | inactive | 17% |  | 
6 | NCCNc1ccc(NCCN)c2c1C(=O)c1c(O)ccc(O)c1C2=O | 30% | 30% | 2.3 h |  |  |  | < 55% | inactive |  |  |  | Active |  |  | Active | inactive |  |  | 
7 | NCCCCCNc1ccc(F)c2c1C(=O)c1ccncc1C2=O | < 1% |  |  |  |  |  |  |  |  |  |  |  |  |  | inactive |  |  |  | 
8 | NCCNCCNc1ccc(F)c2c1C(=O)c1c(O)ccc(O)c1C2=O | 25% | Active | 10 h |  |  |  | Active |  |  |  | Dose-dependent effect | Active |  |  |  | Active |  | 20% | Active
